Results on 15 molecules are retold here after patent US10501479B2, “Benzenesulfonyl-asymmetric ureas and medical uses thereof” (HELSINN HEALTHCARE SA, priority 2016, dated 2019).

Structures are written as SMILES. pEC50, pIC50: −log10 of the molar value. Like-named read-outs stand apart in the source and are kept apart here. Bounds are passed on as bounds.

The nature of series [1]: Metabolic stability in mouse liver microsomes. The format is in vitro ADME. A digest of the protocol: (§1)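 First, microsomes and compound are preincubated 5 min at 37 °C in pH 7.4 phosphate buffer. Next, an NADPH regenerating system starts the reaction. Then aliquots are quenched cold at 10, 30 and 90 min, centrifuged and analysed by LC-MS/MS.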
(In general: Microsomes from liver hold many membrane-bound enzymes, among them those of drug oxidation.)

Series [2] in a line: Metabolic stability in human liver microsomes. Format: in vitro ADME. A digest of the protocol:
as §1

Series [3] concerns the target T1, GHSR-1a (HEK293/GHSR1a cell line) (Homo sapiens, UniProt Q92847).
T1 construct: expressed in transfected cells; host or cells: HEK293/GHSR1a cell line
Nature of the series: Ghrelin agonist potency (EC50) with calcium FLIPR assay. The format is cell-based. The essentials:
(§2)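 The cells were plated a day ahead and loaded with a calcium-sensitive dye. Test compound was then added and incubated 15 min, followed by ghrelin. Antagonist potency was calculated from inhibition of the response to 10 nM ghrelin, and agonist potency from the calcium rise caused by compound alone.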

Series [4] addresses T1, GHSR-1a (HEK293/GHSR1a cell line). Nature of the series: Ghrelin antagonist potency (IC50) with calcium FLIPR assay, ghrelin 10 nM. The format is cell-based. The essentials:
as §2

Series [5] deals with T2, recombinant human ghrelin receptor (HEK293/GRLN) (Homo sapiens, UniProt Q92847).
T2 construct: expressed in transfected cells
Nature of the series: Ghrelin inverse agonist potency (EC50) with IP-1 (IP-One HTRF) assay. Format: cell-based. The following applies: IP-1 assay. The essentials:
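IP-1 accumulation was measured by HTRF (IP1-d2/Tb-cryptate, 620/665 nm read after 1 hour at room temperature) following 1 hour of compound treatment at 37° C. Cells were HEK293 stably expressing human ghrelin receptor, plated a day earlier on Matrigel. Inverse agonist potency was reported as EC50.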
(In TR-FRET formats the signal depends on donor and acceptor labels being close together.)

[6] abbreviates: HEK293/GHSR1a, read-out: Activity EC50/EMax: EC50 (ghrelin agonist potency).
Setting [7] is: HEK293/GHSR1a, ghrelin 10 nM, read-out: Activity IC50 (ghrelin antagonist potency).
Where [8] appears, read: HEK293/GRLN, read-out: Activity EC50 (ghrelin inverse agonist potency).
Where [9] appears, read: ghrelin agonist potency, read-out: Activity EC50/EMax.
The mark [10] stands for this setting: ghrelin antagonist potency, read-out: Activity IC50.
Setting [11] is: ghrelin inverse agonist potency, read-out: Activity EC50.

T1 sequence (Q92847 whole entry): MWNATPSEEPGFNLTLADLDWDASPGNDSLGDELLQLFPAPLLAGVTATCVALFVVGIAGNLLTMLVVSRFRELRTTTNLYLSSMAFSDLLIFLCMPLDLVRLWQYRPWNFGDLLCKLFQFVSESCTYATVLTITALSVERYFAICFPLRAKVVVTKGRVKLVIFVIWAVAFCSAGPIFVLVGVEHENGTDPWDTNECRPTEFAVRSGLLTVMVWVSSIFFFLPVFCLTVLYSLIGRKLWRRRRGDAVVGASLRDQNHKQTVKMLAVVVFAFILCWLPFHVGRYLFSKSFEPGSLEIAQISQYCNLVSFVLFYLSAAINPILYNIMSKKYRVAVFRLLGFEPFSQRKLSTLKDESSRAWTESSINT
T2 sequence (Q92847 whole entry): as above

For orientation: pIC50 means the negative decadic logarithm of the IC50, by convention in mol/L. With `C[C@H](NC(=O)Nc1ccc(S(=O)(=O)Cc2ccc3c(c2)CN(C)CC3)cc1)c1ccccc1` [H1311, (S)-1-(4-(((2-methyl-1,2,3,4-tetrahydroisoquinolin-7-yl)methyl)sulfonyl)phenyl)-3-(1-phenylethyl)urea], the “Metabolic Stability Study M = mouse” value in series [1] came out at 123.8 µL/min/mg. Moreover, the “Metabolic Stability Study H = human” value in series [2] stood at 95.9 µL/min/mg. Besides, the pEC50 is less than 4.52 in series [3] (setting [6]) and 7.07 in series [5] (setting [8]). In series [4] (setting [7]), the pIC50 was 6.97.
In the same order, the values of `C[C@@H](NC(=O)Nc1ccc(S(=O)(=O)Cc2cc(F)c3c(c2)CN(C)C3)cc1)c1ccccc1` [H1355, (R)-1-(4-(((7-fluoro-2-methylisoindolin-5-yl)methyl)sulfonyl)phenyl)-3-(1-phenylethyl)urea] are 304.3 µL/min/mg, 153.5 µL/min/mg, less than 4.52, 7.89 and 7.39.
As to `CC(NC(=O)Nc1ccc(S(=O)(=O)Cc2ccc3c(c2)CNC3)cc1)c1ccccc1F` (stereo not drawn) [H1272, 1-(1-(2-fluorophenyl)ethyl)-3-(4-((isoindolin-5-ylmethyl)sulfonyl)phenyl)urea], in series [1], the “Metabolic Stability Study M = mouse” value was found to be 18.6 µL/min/mg. Further, the “Metabolic Stability Study H = human” value in series [2] amounted to 18.4 µL/min/mg. In addition, the figures for the pEC50 in series [3] (setting [6]) and in series [5] (setting [8]) were less than 4.52 and 8.28, respectively. For the same molecule, the pIC50 in series [4] (setting [7]) is 7.63.
With `COc1cc(NC(=O)N(O)C(C)c2ccccc2)ccc1S(=O)(=O)Cc1ccc2c(c1)CNC2` (stereo not drawn) [H1515, 1-hydroxy-3-(4-((isoindolin-5-ylmethyl)sulfonyl)-3-methoxyphenyl)-1-(1-phenylethyl)urea], in series [1], the “Metabolic Stability Study M = mouse” value stood at 18.4 µL/min/mg. Besides, in series [2], the “Metabolic Stability Study H = human” value is 15.2 µL/min/mg. The pEC50 in series [3] (setting [9]) was less than 4.52; in series [5] (setting [11]) it was 8.02. Besides, in series [4] (setting [10]), the pIC50 is 7.80.
As to `CC(NC(=O)Nc1ccc(S(=O)(=O)Nc2ccc3c(c2)CCN(C)C3)cc1)c1ccccc1Cl` (stereo not drawn) [H1334, 4-(3-(1-(2-chlorophenyl)ethyl)ureido)-N-(2-methyl-1,2,3,4-tetrahydroisoquinolin-6-yl)benzenesulfonamide], the “Metabolic Stability Study M = mouse” value in series [1] worked out at 97.9 µL/min/mg. For the same molecule, the “Metabolic Stability Study H = human” value in series [2] is 109.8 µL/min/mg. Besides, the pEC50 is less than 4.52 in series [3] (setting [6]) and 8.09 in series [5] (setting [8]). Moreover, in series [4] (setting [7]), the negative logarithm of the IC50 (pIC50) is 8.04.
In the same order, the values of `C[C@@H](NC(=O)Nc1ccc(S(=O)(=O)Cc2ccc3c(c2F)CN(C)C3)cc1)c1ccccc1` [H1363, (R)-1-(4-(((4-fluoro-2-methylisoindolin-5-yl)methyl)sulfonyl)phenyl)-3-(1-phenylethyl)urea] are 335.3 µL/min/mg, 140.1 µL/min/mg, less than 4.52, 8.50 and 8.08.
In the same order, the values of `CC(NC(=O)Nc1ccc(S(=O)(=O)Nc2ccc3c(c2)CCN(C)C3)cc1)c1ccccc1F` (stereo not drawn) [H1347, 4-(3-(1-(2-fluorophenyl)ethyl)ureido)-N-(2-methyl-1,2,3,4-tetrahydroisoquinolin-6-yl)benzenesulfonamide] are 58.1 µL/min/mg, 59.9 µL/min/mg, less than 4.52, 8.10 and 7.58.
In the same order, the values of `CC(NC(=O)Nc1ccc(S(=O)(=O)Nc2ccc3c(c2)CCN(C)C3)cc1)c1cccc(F)c1F` (stereo not drawn) [H1346, 4-(3-(1-(2,3-difluorophenyl)ethyl)ureido)-N-(2-methyl-1,2,3,4-tetrahydroisoquinolin-6-yl)benzenesulfonamide] are 69.3 µL/min/mg, 72.9 µL/min/mg, less than 4.52, 8.16 and 7.72.
On to `C[C@H](NC(=O)Nc1ccc(S(=O)(=O)Cc2ccc3c(c2)CN(C)C3)cc1)c1ccccc1` [H1299, (S)-1-(4-(((2-methylisoindolin-5-yl)methyl)sulfonyl)phenyl)-3-(1-phenylethyl)urea], for which, in series [1], the “Metabolic Stability Study M = mouse” value is 50.9 µL/min/mg. Further, the “Metabolic Stability Study H = human” value in series [2] was determined as 71.5 µL/min/mg. For the same molecule, the pEC50 was less than 4.52 in series [3] (setting [6]) and 6.99 in series [5] (setting [8]). Further, in series [4] (setting [7]), the negative logarithm of the IC50 (pIC50) was 6.72.
Turning to `COc1cccc(F)c1C(C)NC(=O)Nc1ccc(S(=O)(=O)Cc2ccc3c(c2)CNC3)cc1` (stereo not drawn) [H1455, 1-(1-(2-fluoro-6-methoxyphenyl)ethyl)-3-(4-((isoindolin-5-ylmethyl)sulfonyl)phenyl)urea], in series [1], the “Metabolic Stability Study M = mouse” value was found to be 56.9 µL/min/mg. In addition, in series [2], the “Metabolic Stability Study H = human” value amounted to 55.5 µL/min/mg. Moreover, the pEC50 in series [3] (setting [6]) is less than 4.52; in series [5] (setting [8]) it was 8.28. Further, the pIC50 in series [4] (setting [7]) was 7.37.
`CC(NC(=O)Nc1ccc(S(=O)(=O)Cc2ccc3c(c2)CNC3)cc1)c1c(F)cccc1F` (stereo not drawn) [H1391, 1-(1-(2,6-difluorophenyl)ethyl)-3-(4-((isoindolin-5-ylmethyl)sulfonyl)phenyl)urea]: the “Metabolic Stability Study M = mouse” value in series [1] was 11.8 µL/min/mg. In addition, in series [2], the “Metabolic Stability Study H = human” value came out at 14.8 µL/min/mg. The figures for the pEC50 in series [3] (setting [6]) and in series [5] (setting [8]) were less than 4.52 and 8.14, respectively. Also, the pIC50 in series [4] (setting [7]) was 7.98.
In the same order, the values of `COc1cc(S(=O)(=O)Cc2ccc3c(c2)CN(C)C3)ccc1NC(=O)NC(C)c1ccccc1F` (stereo not drawn) [H1426, 1-(1-(2-fluorophenyl)ethyl)-3-(2-methoxy-4-(((2-methylisoindolin-5-yl)methyl)sulfonyl)phenyl)urea] are 80.6 µL/min/mg, 77.3 µL/min/mg, less than 4.52, 8.47 and 7.28.
In the same order, the values of `COc1cc(S(=O)(=O)Cc2ccc3c(c2)CN(C)C3)ccc1NC(=O)NC(C)c1cccc(Cl)c1Cl` (stereo not drawn) [H1427, 1-(1-(2,3-dichlorophenyl)ethyl)-3-(2-methoxy-4-(((2-methylisoindolin-5-yl)methyl)sulfonyl)phenyl)urea] are 82.1 µL/min/mg, 58.8 µL/min/mg, less than 4.52, 9.15 and 8.42.
In the same order, the values of `CC(NC(=O)Nc1ccc(S(=O)(=O)Cc2ccc3c(c2)CN(C)C3)cc1F)c1ccccc1` (stereo not drawn) [H1317, 1-(2-fluoro-4-(((2-methylisoindolin-5-yl)methyl)sulfonyl)phenyl)-3-(1-phenylethyl)urea] are 102.8 µL/min/mg, 96.7 µL/min/mg, less than 4.52, 7.74 and 7.32.
`COC(=O)c1cc(S(=O)(=O)Cc2ccc3c(c2)CNC3)ccc1NC(=O)NC(C)c1ccccc1` (stereo not drawn) [H1459, methyl 5-((isoindolin-5-ylmethyl)sulfonyl)-2-(3-(1-phenylethyl)ureido)benzoate]: in series [1], the “Metabolic Stability Study M = mouse” value stood at 49.3 µL/min/mg. Moreover, the “Metabolic Stability Study H = human” value in series [2] is 53.7 µL/min/mg. The results for the pEC50 in series [3] (setting [9]) and in series [5] (setting [11]) were less than 4.52 and 8.08, respectively. The pIC50 in series [4] (setting [10]) was 7.94.
